# Activity calls are given as the source filed them. The calls are words filed in the database; no cut-off is given here.
# Tests used:
# HCT-116 = test: Cytotoxicity against human HCT116 cells after 72 hrs by MTT assay; format: functional, cell-based; details: HCT-116, 72 h
# MCF7 = test: Cytotoxicity against human MCF7 cells after 72 hrs by MTT assay; format: functional, cell-based; details: MCF7, 72 h
# [1] = Cytotoxicity against human H460 cells after 72 hrs by MTT assay; format: functional, cell-based; details: NCI-H460, 72 h
# DNA = test: Induction of DNA damage in plasmid DNA in E. coli S30 cell-free system assessed as inhibition of EGFP translation at 50 uM after 1 hr by fluorescence assay
# Homo sapiens = species: Homo sapiens; test: Inhibition of human DNA topoisomerase 2 assessed as inhibition of DNA cleavage
# Calf thymus DNA [2] = test: Binding affinity to calf thymus DNA assessed as change in melting temperature at 0.5 drug/DNA ratio by spectrophotometry; format: nucleic-acid assay; details: Bos taurus
# Nucleic Acid = test: DNA intercalating activity at Escherichia coli pUC19 plasmid assessed as effect on global structure of DNA helix at 5 to 50 uM incubated for 45 mins prior to topoisomerase1 addition by agarose gel electrophoresis; format: nucleic-acid assay
# Escherichia coli = test: Binding affinity to Escherichia coli pUC19 plasmid assessed as nicked DNA at 5 to 50 uM by ethidium bromide staining-based agarose gel electrophoresis
# [3] = molecular target: T1, DNA topoisomerase 1 (Homo sapiens) (UniProt P11387); test: Inhibition of human DNA topoisomerase 1 assessed as inhibition of DNA cleavage
# T1 sequence (whole entry): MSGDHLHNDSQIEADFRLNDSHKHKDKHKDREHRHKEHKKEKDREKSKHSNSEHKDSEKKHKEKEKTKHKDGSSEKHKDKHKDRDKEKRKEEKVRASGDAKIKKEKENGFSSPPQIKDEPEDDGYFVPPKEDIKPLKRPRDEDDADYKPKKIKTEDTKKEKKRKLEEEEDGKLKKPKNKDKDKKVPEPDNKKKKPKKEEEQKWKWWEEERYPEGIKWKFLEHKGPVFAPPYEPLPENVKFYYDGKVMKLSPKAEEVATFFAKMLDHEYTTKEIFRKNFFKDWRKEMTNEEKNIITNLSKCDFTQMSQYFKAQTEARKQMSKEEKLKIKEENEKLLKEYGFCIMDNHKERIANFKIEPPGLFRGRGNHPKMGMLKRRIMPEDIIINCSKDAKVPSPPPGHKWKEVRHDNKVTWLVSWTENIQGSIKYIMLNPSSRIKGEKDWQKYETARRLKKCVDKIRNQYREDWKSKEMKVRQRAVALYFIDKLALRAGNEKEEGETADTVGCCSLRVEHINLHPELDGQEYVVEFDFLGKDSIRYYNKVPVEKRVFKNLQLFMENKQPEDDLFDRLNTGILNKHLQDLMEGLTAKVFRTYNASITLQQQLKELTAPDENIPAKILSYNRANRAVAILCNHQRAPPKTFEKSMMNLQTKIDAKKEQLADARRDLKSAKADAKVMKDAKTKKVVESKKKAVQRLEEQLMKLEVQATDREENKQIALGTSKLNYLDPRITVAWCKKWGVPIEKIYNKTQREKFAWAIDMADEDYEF
# Calf thymus DNA [4] = test: Binding affinity to calf thymus DNA assessed as DNA intercalation at 1 to 50 uM by circular dichroism analysis; format: nucleic-acid assay; details: Bos taurus
Structure (SMILES),IC50 (HCT-116) [nM],IC50 (MCF7) [nM],IC50 [1] [nM],also measured
CCN(CC)c1ccc2cc(C#N)c3nc4ccccc4n3c2c1,2000,2000,1600,–
CCCCNc1ccc2cc(C#N)c3nc4ccccc4n3c2c1,4000,1000,2000,–
COc1cc([C@@H]2c3cc4c(cc3[C@@H](O[C@@H]3O[C@@H]5CO[C@@H](C)O[C@H]5[C@H](O)[C@H]3O)[C@H]3COC(=O)[C@H]23)OCO4)cc(OC)c1O,–,–,–,inhibition (DNA): inactive
O=C(O)CCCc1ccc(N(CCCl)CCCl)cc1 [CHLORAMBUCIL],–,–,–,inhibition at 50 µM (DNA): 45%
CCCN(CCC)c1ccc2cc(C#N)c3nc4ccccc4n3c2c1,500,2500,300,–
N#Cc1cc2ccc(N3CCCCC3)cc2n2c1nc1ccccc12,8000,2000,5000,Activity (Homo sapiens): inactive; ΔTm (Calf thymus DNA [2]): 0 °C; Activity (Nucleic Acid): inactive; Activity (Escherichia coli): Active; Activity [3]: inactive; Activity (Calf thymus DNA [4]): inactive
CC[C@@]1(O)C(=O)OCc2c1cc1n(c2=O)Cc2cc3ccccc3nc2-1,–,–,–,inhibition (DNA): inactive

# Reference: ChEMBL document CHEMBL3217548, “Biological activity and DNA binding studies of 2-substituted benzimidazo[1,2-a]quinolines bearing different amino side chains” (Medchemcomm, 2013)
